Reference: US8940271B2, “Transmucosal administration of drug compositions for treating and preventing disorders in animals” (Abbott Laboratories, priority 2005, dated 2015)
Where two headings read alike, the source gives them in different places.

Tests used:
[1] = Milbemycin canine study, tablets vs TMOM; format: in vivo, dog; details: dogs
Method: A twelve dog random parallel design was carried out to compare conventional oral administration (i.e., tablets) of Milbemycin with transmucosal oral administration. The tablets used were Interceptor® Flavor Tab®, 5.75 mg and 11.5 mg, providing an average dose of 0.78 mg/kg (0.50-0.99 mg/kg).

[2] = dogs
Method: A six dog, two-way crossover experiment was carried out with a target dose of 6.0 mg/kg propofol administered by IV, and 30.0 mg/kg of propofol using transmucosal oral administration.

[3] = cited from earlier work
[4] = pH dependence of dissolution/precipitation of 1% meloxicam; format: physicochemical
Method: NaOH solution (1 M) was added to the mixture to provide a pH of 10. […] Each solution was then titrated with HCl (aq). […] Similarly, for the 85:15 water:ethanol solvent system, a precipitate formed when the initial apparent pH of 12 was reduced to 7.7 (by addition of HCl).

[5] = Stability of meloxicam with various solubilizing agents; format: physicochemical; details: storage with PVA, Polysorbate 80 or glycerin
[6] = pH dependence of dissolution/precipitation of 1% meloxicam; format: physicochemical; details: 95:5 water:propylene glycol, concentrated NaOH solution (10 M) added
[7] = Canine anesthetized meloxicam absorption study; details: TMOM
Method: A canine anesthetized absorption study was also carried out. The subjects were anesthetized dogs using minimal pre-anesthetics (isoflurane via an endotracheal tube). The possibility of run off into and absorption by the gastrointestinal tract was prevented by obstructing the esophagus with a Foley catheter. […] Blood samples were taken 0, 5, 30 min, and 1, 2, 4, 8, 12, 24, and 72 hours post-dose. Jugular and cephalic vein samples were obtained 5, 30 min and 4, 8 hours post-dose.

[8] = Canine meloxicam absorption study (TMOM vs oral suspension); details: ~0.2 mg/kg, dogs
Method: The average oral suspension dose was 0.20 mg/kg (range 0.19-0.21 mg/kg), and the average dose using transmucosal oral administration was 0.20 mg/kg (range 0.19-0.21 mg/kg). Blood samples were obtained at 0, 5, 30 minutes and 1, 2, 4, 8, 12, 24, 48, and 72 hours post dose.
The AUC represents the area under the curve or the total amount of drug exposure to the animal following administration by the two different dosage forms. […] Absorption half-life is the amount of time it takes for half of what is left at the site of absorption to be absorbed.

[9] = Canine carprofen study (caplet, TMOM, subcutaneous injection); format: in vivo, dog; details: dogs
[10] = Canine anesthetized carprofen absorption study; format: in vivo, dog; details: TMOM
Method: A canine anesthetized absorption study was also carried out. […] The carprofen was administered using a transmucosal oral mist. Blood samples were taken 0, 5, 15, 30 min, and 1, 2, 4, 8, 12, and 24 hours post-dose. Jugular and cephalic vein samples were obtained 5, 15 and 30 and 1 and 2 hours post-dose. The target dosage was 2.2 mg/kg (50 mg/mL Rimadyl® injectable solution, 300 μL (15 mg), target dose range 1.9-2.5 mg/kg).

[11] = Zolpidem two-way crossover, tablet vs TMOM, canine; details: for absorption time and absorption half-life, TMOM vs tablet / peak plasma concentration (Cmax), TMOM vs tablet: dogs
Method: (§1) A six animal (canine and feline) two-way crossover experiment was carried out in which the subjects were administered a zolpidem tablet or a transmucosal oral mist of a 2.5% zolpidem tartrate solution.
Canine subjects were administered tablets (average dose 0.55 mg/kg (0.40-0.63 mg/kg)) or a transmucosal oral mist (average dose 0.55 mg/kg (0.42-0.62 mg/kg)). The transmucosal oral mist administration used a spray volume of 200-250 μL in 2-3 pumps of the spray dispenser. By comparison, the average human dose is 0.08-0.17 mg/kg

[12] = Zolpidem two-way crossover, tablet vs TMOM, feline
Method: as §1
Feline subjects were administered tablets (average dose 0.74 mg/kg) or a transmucosal oral mist (average dose 0.72 mg/kg). The transmucosal oral mist used a spray volume of 100 μL in 1 pump of the spray dispenser.

[13] = Canine anesthetized clemastine absorption study; format: in vivo, dog; details: anesthetized canine subjects, TMOM
Method: A canine anesthetized absorption study was also carried out.

[14] = equine, oral gavage; Törneke et al. 2003; cited from earlier work
[15] = in vivo; details: dog, plasma, po, 1 mg/kg
Method: (§2) The target dose for canine subjects was 1 mg/kg (both transmucosal oral administration and tablets). The average tablet dose was 0.96 mg/kg (0.95-0.97 mg/kg) and the average transmucosal oral administration dose was 0.97 mg/kg (0.91-1.06 mg/kg) administered in a spray volume of 400-650 μL using 4-7 pumps of the spray device. The target dose for feline subjects was also 1 mg/kg for both transmucosal oral administration and tablets. The average tablet dose of 1.07 mg/kg (0.89-1.22 mg/kg) and the average transmucosal oral administration dose was 0.95 mg/kg (0.83-1.14 mg/kg) administered in a spray volume of 100-200 μL using 1-2 pumps of the spray device. The target dose for equine subjects was 0.1 mg/kg for both transmucosal oral administration and tablets. The average tablet dose (via stomach tube) was 0.1 mg/kg (0.10-0.11 mg/kg) and the average transmucosal oral administration dose was 0.1 mg/kg (0.09-0.11 mg/kg) administered in a spray volume of 1.4-1.7 mL using 14-17 pumps of the spray device.
(§3) Blood samples were taken 5, 15, 30 min, 1, 2, 4, 7, 12, 24 hours post dose.

[16] = in vivo; details: horse, plasma, po, 0.1 mg/kg
Method: as §2, §3

[17] = Clemastine two-way crossover, tablets vs TMOM, canine
Method: as §2, §3

[18] = Clemastine two-way crossover, tablets (stomach tube) vs TMOM, equine
Method: as §2, §3

[19] = Enrofloxacin feline study, tablets vs TMOM; format: in vivo, cat; details: cats
Method: A six cat, two-way crossover study was carried out to compare conventional oral administration (i.e., tablets, Baytril®) with transmucosal oral administration (Baytril® 100; 100 mg of enrofloxacin, L-arginine base 200 mg, n-butyl alcohol 30 mg, benzyl alcohol (as a preservative) 20 mg, and water for injection, q.s.). The target was 5 mg/kg enrofloxacin. The average tablet dose was 4.7 mg/kg and the average TMOM™ dose was 4.9 mg/kg (250-300 μL).

[20] = ~0.5 mg/kg, listed as zolpidem tartrate

## Milbemycin
[1]
  variability of plasma concentrations, transmucosal vs tablet: less variable
[1]; 0.28 mg/kg
  uptake by transmucosal oral administration: very good
[1]; corrected for dosage
  bioavailability, transmucosal oral administration vs conventional tablet: similar

## CC(C)c1cccc(C(C)C)c1O [propofol]
[2]
  uptake using transmucosal oral administration: rapid
[2]; TMOM ~30 mg/kg vs IV ~6 mg/kg
  Cmax value compared to IV administration: somewhat lower
[2]; TMOM ~30 mg/kg, by 2 hours
  part of transmucosally administered dose absorbed: Greater than 90%

## C[C@H]1O[C@@H](O[C@H]2[C@@H](O)C[C@H](O[C@H]3[C@@H](O)C[C@H](O[C@H]4CC[C@@]5(C)[C@H](CC[C@@H]6[C@@H]5C[C@@H](O)[C@]5(C)[C@@H](C7=CC(=O)OC7)CC[C@]65O)C4)O[C@@H]3C)O[C@@H]2C)C[C@H](O)[C@@H]1O [Digoxin, (3β,5β,12β)-3-[(O-2,6-dideoxy-β-D-ribo-hexopyranosyl-(1,4)-O-2,6-dideoxy-β-D-ribo-hexopyranosyl-(1,4)-O-2,6-dideoxy-β-D-ribo-hexopyranosyl)oxy]-12,14-dihydroxy-card-20(22)-enolide]
[3]; in chloroform
  solubility: slightly soluble
[3]; in diluted (e.g., about 50%) alcohol
  solubility: slightly soluble
[3]; in ether
  solubility: practically insoluble
[3]; in pyridine
  solubility: freely soluble
[3]; in water
  solubility: practically insoluble

## Cc1cnc(NC(=O)C2=C(O)c3ccccc3S(=O)(=O)N2C)s1 [Meloxicam, 4-hydroxy-2-methyl-N-(5-methyl-2-thiazolyl)-2H-1,2-benzothiazine-3-carboxamide-1,1-dioxide]
[4]
  pH needed for meloxicam to remain in solution: greater than 8.0
  pH value of solution causing meloxicam precipitation: less than 8
[4]; 1% meloxicam, 85:15 water:ethanol, initial apparent pH of 12 reduced by HCl
  apparent pH at which a precipitate formed: 7.7
[4]; 1% meloxicam, 100% water, titrated with HCl (aq)
  pH at which meloxicam precipitation was observed: 7.2
[4]; 80% water/15% EtOH/5% Poloxamer 188, 1 M NaOH added to pH of 10
  dissolution of 1% meloxicam: dissolve
[4]; 80% water/15% EtOH/5% Poloxamer 188, acidified to pH of 7 with 0.2 M HCl
  dissolution of 1% meloxicam: precipitate
[4]; 80% water/15% EtOH/5% Poloxamer 188, additional 1 M NaOH, pH to 8
  dissolution of 1% meloxicam: redissolved and remained in solution
[4]; 80% water/15% EtOH/5% Poloxamer 188, pH of approximately 5.8
  dissolution of 1% meloxicam: did not dissolve completely
[4]; 100% water, pH adjusted to 10.1
  dissolution of 1% meloxicam: redissolved
[4]; 100% water, pH then reduced to approximately 7.8
  dissolution of 1% meloxicam: no further precipitation
[5]
  physical stability of the meloxicam solution: greater with PVA than Polysorbate 80 or glycerin
[6]
  dissolution of 1% meloxicam: did not dissolve
[7]; anesthetized dogs, at 30 min and 4 h
  jugular plasma levels as compared to cephalic (systemic) levels: higher
[7]; dogs
  part of the dose in an awake animal delivered transmucosally: ≤ 90%
[8]
  bioequivalence to meloxicam administered via an oral suspension: bioequivalent

## CC(C(=O)O)c1ccc2c(c1)[nH]c1ccc(Cl)cc12 (stereo not shown) [carprofen]
[9]
  Cmax and AUC values, caplet vs transmucosal oral administration: very similar
  Cmax of the subcutaneous injection relative to caplet or transmucosal oral administration: approximately half
  Tmax, transmucosal oral administration vs caplet: shorter
  absorption and Tmax, subcutaneous injection vs caplet or TMOM: slower absorption and greater time to peak concentrations
  absorption, transmucosal oral administration vs caplet: slightly faster
[9]; transmucosal oral administration
  lag time: no lag time
[9]; caplet, TMOM, subcutaneous injection
  AUC values of the three administration methods: all similar
[10]; anesthetized dogs, at 30 min
  plasma jugular levels as compared to cephalic levels: higher
[10]; dogs
  AUC for anesthetized animals relative to awake animals: approximately 25%

## Cc1ccc(-c2nc3ccc(C)cn3c2CC(=O)N(C)C)cc1 [zolpidem, N,N-6-trimethyl-2-p-tolyl-imidazo[1,2-a]pyridine-3-acetamide]
[11]; canine, 12 minutes after administration
  vomiting after TMOM administration: One of the canine subjects vomited
[11]; canine, TMOM
  time within which substantially all of the dose was absorbed: ≤ 12 min
[11]; canine, ~0.5 mg/kg
  AUC, TMOM vs tablet: greater
  Tmax, TMOM vs tablet: shorter
[11]; ~0.5 mg/kg
  absorption time and absorption half-life, TMOM vs tablet: shorter
  peak plasma concentration (Cmax), TMOM vs tablet: greater
[11]; [20]
  absorption time and absorption half-life, TMOM vs tablet: significantly lower (shorter)
  peak plasma concentration (Cmax), TMOM vs tablet: higher
[12]; cats, within experimental error
  absorption time, peak plasma concentration, and total absorption, TMOM vs tablet: comparable
[12]; feline, salivation can lead to reduced absorption
  AUC, TMOM vs tablet: lower

## CN1CCC[C@@H]1CCO[C@](C)(c1ccccc1)c1ccc(Cl)cc1 [clemastine]
[13]
  absorption via the transmucosal route: readily absorbed
cats
  absorption: well absorbed
Feline subjects
  salivation: mild to severe
feline, ~1 mg/kg, appears to be an artifact of salivation
  AUC values, transmucosal oral vs tablet: Lower
[14]
  t1/2: 2.9 h
[15]
  Tmax: ~0.167 h
[16]
  half-life: 2.8 h
[17]; canine subjects
  salivation: none to moderate
[17]; canine, ~1 mg/kg
  peak (Cmax), transmucosal oral vs tablet: much higher
[17]; dogs, 1 mg/kg
  AUC and Cmax, TMOM route vs oral tablet route: about an order of magnitude greater
[18]; 0.1 mg/kg
  Tmax, transmucosal oral vs oral gavage of tablets: shorter
  bioavailability, transmucosal oral vs oral gavage of tablets: significantly better
[18]; oral gavage
  bioavailability of clemastine in tablet form: extremely poor

## CCN1CCN(c2cc3c(cc2F)c(=O)c(C(=O)O)cn3C2CC2)CC1 [enrofloxacin]
[19]; TMOM
  lag time in uptake: no lag time
[19]; TMOM, 5 min time point
  jugular plasma concentrations as compared to cephalic concentrations: Consistently and significantly higher
[19]; ~5 mg/kg
  AUC, Cmax, Tmax or t1/2 values, transmucosal vs conventional administration: essentially no difference
